Data as given in patent US12343429B2, “Method of delivery of DNA or RNA cargo unshielded lipid nanoparticles and compositions thereof” (NanoVation Therapeutics Inc., priority 2023, dated 2025).

Tests used:
[1] = LNP formulability and stability through dialysis, concentration and storage; format: physicochemical; conditions: for behaviour in dialysis: PEG-less mRNA-LNP 1/structural lipid/cholesterol 27.4/50/22.6, unmodified method; for viability of LNPs, modified method with 25 mM sodium acetate dilution: all ratios of LNP:NaOAc (v:v); for physiochemical properties/stability, modified method with 1× PBS dilution after T-mixing: all ratios of LNP:PBS tested, after dialysis and after concentration to >0.25 mg/mL and overnight storage; for ability to be formulated in PEG-less mRNA-LNPs: unmodified ethanol mixing method, ionizable lipid/DSPC/chol 27.4/50/22.6, N/P 9 (FIG. 6); for behaviour after dialysis and concentration/storage: PEG-less mRNA-LNP, unmodified method, 27.4/50/22.6; for physiochemical characteristics, modified method with 25 mM sodium acetate dilution: 1:2-1:3 volume ratio
Protocol: Unless otherwise specified, the LNPs were prepared by dissolving mRNA or plasmid DNA (pDNA) in 25 mM sodium acetate, pH 4.0, while the lipid components at the mole % specified were dissolved in absolute ethanol. The lipids in ethanol and the nucleic acid cargo in buffer were combined in a 1:3 volume by volume ratio using a t-junction with dual-syringe pump. The solutions were pushed through the t-junction at a combined flow rate of 20 mL/min (5 mL/minute for the lipid-containing syringe, 15 mL/minute for the mRNA-containing syringe). The mixture was subsequently dialyzed overnight against at least ˜100 volumes of 1× phosphate buffered saline (PBS), pH 7.4 using Spectro/Por™ dialysis membranes (molecular weight cut-off 12 000-14 000 Da). The LNPs were concentrated as required with an Amicon Ultra™ 100 000 MWCO (molecular weight cut-off), regenerated cellulose concentrator.
After T-mixing, 1× phosphate buffered saline (PBS) or other buffer as indicated, was added to the formulation mixture in increasing ratios of LNP: 1× buffer prior to dialysis and gently mixed, followed by transfer to dialysis in 1×PBS (or other suitable buffer as indicated) followed by processing as usual.
After the T-mixing (see Materials and Methods above), 1× phosphate buffered saline (PBS) was added to the formulation mixture in increasing volume ratios of LNP: 1× PBS (as indicated in FIGS. 7A-F) prior to dialysis followed by gentle mixing and transfer of the mixture to a dialysis bag in 1×PBS overnight followed by processing as usual. […] Physiochemical characteristics (particle size, PDI and encapsulation %) were measured after dialysis and after dialysis and concentration of the LNPs to >0.25 mg/mL and overnight storage.

[2] = Encapsulation efficiency (RiboGreen), particle size and PDI (Zetasizer Nano ZS) of LNPs; format: physicochemical; conditions: PEG-less mRNA-LNP, unmodified method, 27.4/50/22.6 (FIG. 6)
Protocol: Encapsulation efficiency was calculated by determining unencapsulated mRNA content by measuring the fluorescence upon the addition of RiboGreen™ to the mRNA-LNP (Fi) and comparing this value to the total mRNA content that is obtained upon lysis of the LNP by 2% Triton X-100 (Ft): % encapsulation=(Ft−Fi)/Ft×100.
The particle size and polydispersity index (PDI) were characterized using a Zetasizer Nano ZS™.

[3] = buffer-to-LNP ratio as low as 1:1 (v:v)
[4] = dilution ratios below 1:1 (v:v)

| SMILES | ability to be formulated in PEG-less mRNA-LNPs [1] | PDI [2] | encapsulation efficiency [2] | behaviour after dialysis and concentration/storage [1] | further results |
| --- | --- | --- | --- | --- | --- |
| CCCCCCCCCCCCCC(=O)OC[C@H](COP(=O)([O-])OCC[N+](C)(C)C)OC(=O)CCCCCCCCCCCCC [DMPC, dimyristoylphosphatidylcholine] |  |  |  |  | physiochemical characteristics after concentration/storage ([1]; 12/DMPC/cholesterol 27.4/50/22.6, unmodified method (FIG. 13)): deteriorated after concentration/storage; physiochemical characteristics / behaviour upon dialysis ([1]; PEG-less LNP with 12 as ionizable lipid, helper lipid screen, unmodified method (FIG. 13)): less ideal physiochemical characteristics |
| CCCCCCCC/C=C\CCCCCCCC(=O)OC[C@H](COP(=O)([O-])OCC[N+](C)(C)C)OC(=O)CCCCCCC/C=C\CCCCCCCC [DOPC, dioleoylphosphatidylcholine] |  |  |  |  | behaviour in dialysis [1]: agglomerated in dialysis |
| CCCCCCCC/C=C\CCCCCCCC(=O)OC[C@H](COP(=O)(O)OCCN)OC(=O)CCCCCCC/C=C\CCCCCCCC [DOPE, dioleoylphosphatidylethanolamine] |  |  |  |  | behaviour in dialysis [1]: agglomerated in dialysis |
| CCCCCCCCCCCCCCCCCC(=O)OC[C@H](COP(=O)([O-])OCC[N+](C)(C)C)OC(=O)CCCCCCCCCCCCCCCCC [DSPC, distearoylphosphatidylcholine] |  |  |  |  | change in physiochemical characteristics after concentration and refrigerated storage ([1]; PEG-less mRNA-LNP 1/structural lipid/cholesterol 27.4/50/22.6, unmodified method (FIGS. 12A, 12B)): no change |
| CCCCCCCCC(=O)OC(CCCCCC(CCCCCC(CSC1CCCCC1)OC(=O)CCCCCCCC)OC(=O)CCCN(C)C)CSC1CCCCC1 (stereo not drawn) [Ionizable lipid 1] | capable of being formulated |  |  |  | viability of LNPs, modified method with 25 mM sodium acetate dilution [1]: viable LNPs; physiochemical properties/stability, modified method with 1× PBS dilution after T-mixing [1]: acceptable physiochemical properties |
| CCCCCCCCCC(=O)OC(CCCCC1(CCCCC(CSC2CCCCC2)OC(=O)CCCCCCCCC)OCC(CCN(C)C)O1)CSC1CCCCC1 (stereo not drawn) [Ionizable lipid 12] | undesirable physiochemical characteristics | high | low | agglomerate after dialysis or were not stable after concentration/storage | viability of LNPs, modified method with 25 mM sodium acetate dilution [1]: viable PEG-less LNPs; stability, modified method with 1× PBS dilution ([1]; less than 1× volume of 1×PBS (1:0.25, 1:0.5, undiluted)): agglomerated upon dialysis; stability, modified method with 1× PBS dilution ([1]; ratios of at least 1:1 (v:v) addition of 1×PBS): stable after concentration and overnight storage |
| CCCCCCCC(=O)OC(CCCCCC)CSCCCCCC(CCCCCSCC(CCCCCC)OC(=O)CCCCCCC)N(C)CCCCO (stereo not drawn) [Ionizable lipid 15] | undesirable physiochemical characteristics | high | low | agglomerate after dialysis or were not stable after concentration/storage | physiochemical characteristics, modified method with 25 mM sodium acetate dilution [1]: ideal physiochemical characteristics; physiochemical properties/stability, modified method with 1× PBS dilution after T-mixing [1]: agglomerated in dialysis; stability, modified method with 25 mM sodium acetate dilution [1, 3]: stable PEG-less lcLNP compositions; stability, modified method with 25 mM sodium acetate dilution [1, 4]: agglomerated in dialysis |
| CCCCCCC(CSCCCCCC(CCCCCSCC(CCCCCC)OC(=O)CCC1CCCCC1)N(C)CCCCO)OC(=O)CCC1CCCCC1 (stereo not drawn) [Ionizable lipid 16] | undesirable physiochemical characteristics | high | low | agglomerate after dialysis or were not stable after concentration/storage | stability, modified method with 1× PBS dilution ([1]; 1:2 (v:v) dilution): stable particles which did not agglomerate in dialysis; physiochemical characteristics, modified method with 25 mM sodium acetate dilution [1]: ideal physiochemical characteristics; stability, modified method with 25 mM sodium acetate dilution [1, 3]: stable PEG-less lcLNP compositions; stability, modified method with 25 mM sodium acetate dilution [1, 4]: agglomerated in dialysis |
| CCCCCCCCC(CCCCCC)C(=O)OCCCCCC(CCCCCSCC(CCCCCC)OC(=O)CCC1CCCCC1)N(C)CCCCO (stereo not drawn) [Ionizable lipid 17] | undesirable physiochemical characteristics | high | low | agglomerate after dialysis or were not stable after concentration/storage |  |
| CCCCCCCCCCCOC(=O)CCCCCN(CCO)CCCCCCCC(=O)OC(CCCCCCCC)CCCCCCCC [Ionizable lipid 21] | capable of being formulated |  |  |  |  |
